Earlier results in patent publication EP4578441A1, “TREATMENT OF LOCALIZED PAIN” (PlantTec Medical GmbH, priority 2023, dated 2025).
Read-outs that look alike come from different tables or passages of the source.

Assays:
[1] = free base
volunteers = conditions: i.v. infusions

Row | water solubility [1] | SMILES | CNS toxicity threshold, free plasma ropivacaine concentration (volunteers; free plasma concentration) [µg/mL] | CNS toxicity threshold, free plasma ropivacaine concentration, maximum (volunteers; maximum) [µg/mL] | CNS toxicity threshold, free plasma ropivacaine concentration, minimum (volunteers; minimum) [µg/mL] | safety of local administration (dose of 400 mg) | safety of local administration (dose of 800 mg)
1 | weak | CCCN1CCCC[C@H]1C(=O)Nc1c(C)cccc1C [ropivacaine free base, (S)-1-Propyl-2',6'-dimethyl-2-piperidylcarboxyanilide] | – | – | – | – | –
2 | – | CCCN1CCCC[C@H]1C(=O)Nc1c(C)cccc1C [ropivacaine, (S)-1-Propyl-2',6'-dimethyl-2-piperidylcarboxyanilide] | 0.60 | 0.85 | 0.34 | safe | safe
